In ChEMBL document CHEMBL4422617, “Recent advances in the discovery of small molecules targeting glioblastoma” (Eur J Med Chem, 2019):
Converted amounts (≈) assume the structure as drawn.

Experiments:
U-87 MG [1] = assay: Antiproliferative activity against human U87MG cells after 96 hrs by SRB assay; format: functional, U-87MG ATCC
U-87 MG [2] = assay: Antiproliferative activity against human U87MG cells after 72 hrs by MTT assay; format: functional, cell-based, U-87MG ATCC
[3] = Antiproliferative activity against human GBM95 cells after 72 hrs by MTT assay; format: functional, cell-based
Histone deacetylase = assay: Inhibition of mouse liver HDAC using Boc-Lys (Ac)-AMC as substrate preincubated for 5 mins followed by substrate addition and measured after 30 mins by fluorescence assay
U-251 [4] = assay: Antiproliferative activity against human U251 cells after 24 hrs by SRB assay; format: functional, cell-based; conditions: U-251, 24 h
U-251 [5] = assay: Antiproliferative activity against human U251 cells by MTT assay; format: functional, cell-based
U-251 [6] = assay: Antiproliferative activity against human U251MG cells after 120 hrs by SRB assay; format: functional, cell-based; conditions: U-251, 120 h
SF-295 = assay: Antiproliferative activity against human SF295 cells after 72 hrs by MTT assay; format: functional, cell-based; conditions: SF-295, 72 h
U373 MG [7] = assay: Antiproliferative activity against human U373MG cells after 48 hrs by MTS assay; format: functional, cell-based, U-373MG ATCC
U-87 MG [8] = assay: Antiproliferative activity against human U87MG cells after 48 hrs by MTS assay; format: functional, cell-based, U-87MG ATCC
U373 MG [9] = assay: Antiproliferative activity against human U373MG cells after 72 hrs by MTS assay; format: functional, cell-based, U-373MG ATCC
U-87 MG [10] = assay: Antiproliferative activity against human U87MG cells after 72 hrs by MTS assay; format: functional, cell-based, U-87MG ATCC
T98G [11] = assay: Antiproliferative activity against human T98G cells after 72 hrs by MTS assay; format: functional, cell-based
[12] = Antiproliferative activity against human PRT-HU2 cells after 72 hrs by MTS assay; format: functional, cell-based
[13] = Antiproliferative activity against human M059K cells after 48 hrs by WST-1 assay; format: functional, cell-based
U-87 MG [14] = assay: Antiproliferative activity against human U87MG cells after 24 hrs by WST-1 assay; format: functional, cell-based, U-87MG ATCC
C6 = assay: Antiproliferative activity against rat C6 cells at 50 uM after 24 hrs by MTT assay relative to control; format: functional
U-87 MG [15] = assay: Antiproliferative activity against human U87 cells over-expressing EGFRvIII assessed as reduction in cell viability after 72 hrs by AlamarBlue assay; format: functional, cell-based, U-87MG ATCC
U-251 [16] = assay: Antiproliferative activity against human U251 cells assessed as reduction in cell viability after 72 hrs by AlamarBlue assay; format: functional, cell-based; conditions: U-251, 72 h
U-87 MG [17] = assay: Antiproliferative activity against human U87 cells assessed as reduction in cell viability after 72 hrs by AlamarBlue assay; format: functional, cell-based, U-87MG ATCC
[18] = Cytotoxicity against human GBM6 cells after 72 hrs by MTS assay; format: functional; conditions: GBM6, 72 h, read-out: ED50 (the source's name)
SNB-19 = assay: Antiproliferative activity against human SNB19 cells after 72 hrs by WST-1 assay; format: functional, cell-based; conditions: SNB-19, 72 h
[19] = Tmax in […] mouse at 25 micromol/kg, ip administered as single dose by mass spectrometric analysis; format: ADME, organism-based; conditions: in vivo, 25 µmol/kg
U-118-MG = assay: Antiproliferative activity against human U118MG cells after 5 days by CyQuantGR dye-based fluorescence assay; format: functional, cell-based; conditions: 120 h
[20] = Cmax in […] mouse at 25 micromol/kg, ip administered as single dose by mass spectrometric analysis; format: ADME, organism-based; design: route intraperitoneal; conditions: in vivo, 25 µmol/kg
U-87 MG [21] = assay: Antiproliferative activity against human U87MG cells after 5 days by CyQuantGR dye-based fluorescence assay; format: functional, cell-based, U-87MG ATCC; conditions: 120 h
U-251 [22] = assay: Antiproliferative activity against human U251 cells after 5 days by CyQuantGR dye-based fluorescence assay; format: functional, cell-based; conditions: U-251, 120 h
[23] = Half life in […] mouse at 25 micromol/kg, ip administered as single dose by mass spectrometric analysis; format: ADME, organism-based; conditions: in vivo, 25 µmol/kg
T98G [24] = assay: Antiproliferative activity against human T98G cells after 5 days by CyQuantGR dye-based fluorescence assay; format: functional, cell-based; conditions: 120 h
[25] = Antiproliferative activity against human D456 cells after 7 days […] by CellTiter Glo assay; format: functional, cell-based; conditions: 168 h
LN-229 = assay: Inhibition of cell proliferation of human LN229 cells at 5 uM; format: functional
U-87 MG [26] = assay: Inhibition of cell proliferation of human U87 cells over-expressing EGFRvIII at 5 uM; format: functional, U-87MG ATCC
U-251 [27] = assay: Inhibition of cell proliferation of human U251 cells at 5 uM; format: functional

NC1(Cc2ccc(Cl)cc2)CCN(c2ncnc3[nH]ccc23)CC1
GI50 (U-87 MG [1]): 6.3 µM

CC(C)=CCC1=C(NCCCCN(CN)CCCc2ccccc2)C(=O)c2ccccc2C1=O
IC50 (U-87 MG [2]): 4.3 µM | IC50 [3]: 6.6 µM

COc1ccc2c(c1)c(=O)c(C(=O)Nc1nc3ccccc3s1)cn2CCCCCC(=O)NO
IC50 (Histone deacetylase): 0.028 µM | IC50 (U-251 [4]): 0.8 µM

O[C@@H](c1cc(C(F)(F)F)nc2c(C(F)(F)F)cccc12)[C@H]1CCCCN1 [(S,R)-MEFLOQUINE]
IC50 (U-251 [5]): 10 µM

CN(C)CCN1C(=O)c2cc(NCCc3ccc(O)c(CN(C)C)c3)c3c4c(cc(NCCc5ccc(O)c(CN(C)C)c5)c(c24)C1=O)C(=O)N(CCN(C)C)C3=O
IC50 (U-251 [6]): 0.033 µM

O=C1C=C(O)C(=O)C(CC2CCC3CCCCC3C2)=C1O (stereo not given)
IC50 (U-87 MG [2]): 23.6 µM

CC1(C)OC2=C(C(=O)C(=O)c3ccccc32)[C@H](n2cc(C[Se]c3ccc(F)cc3)nn2)[C@H]1Br
IC50 (SF-295): 1.48 µM

O=C1[C@@H]2CS[C@]3(C(=O)Nc4ccccc43)N2C(=O)N1Cc1ccc(Cl)cc1
IC50 (U373 MG [7]): 5.7 µM | IC50 (U-87 MG [8]): 2.5 µM

Clc1ccccc1CNc1ncnc2c1cnn2CC(Cl)c1ccc(Br)cc1 (stereo not given)
IC50 (U373 MG [9]): 17.9 µM | IC50 (U-87 MG [10]): 14.9 µM | IC50 (T98G [11]): 12.5 µM | IC50 [12]: 14.3 µM

COc1ccc(/N=C/c2c(O)ccc3c2oc2cc(Cl)c(O)c(Cl)c23)cc1
IC50 [13]: 40 µM | IC50 (U-87 MG [14]): 25 µM

Brc1c(Br)c(Br)c2[nH]cnc2c1Br
Activity (C6): 50%

O=C(CCCc1ccc(-c2cccnc2F)cc1)Nc1ccc(O)cc1
EC50 (U-87 MG [15]): 1.7 µM | EC50 (U-251 [16]): 1.6 µM | EC50 (U-87 MG [17]): 1.4 µM

CN1CCN(C(=O)c2ccc3c(NC4CCN(Cc5ccccc5)CC4)c4ccccc4nc3c2)CC1
EC50 [18]: 4.1 µM

Cn1cnc2nc(Cl)nc(SCC#CCN3CCCC3)c21
EC50 (SNB-19): 5 µg/mL (≈ 15.5 µM)

Cc1ccc(N(CCn2nnc3c(C(N)=O)ncn3c2=O)CCn2nnc3c(C(N)=O)ncn3c2=O)cc1
Tmax [19]: 10 min | IC50 (U-118-MG): 10 µM | Cmax [20]: 260 nM | IC50 (U-87 MG [21]): 14 µM | IC50 (U-251 [22]): 5.2 µM | half-life [23]: 14 min | IC50 (T98G [24]): 11.3 µM

O=C1CC(c2ccc(-c3cc[nH]n3)s2)c2cc(N3CCNC3=O)ccc2N1 (stereo not given)
IC50 [25]: 1.69 µM

O=c1[nH]c2ncc(-c3ccc(-c4nc[nH]n4)cc3)nc2n1CCC1CCOCC1
inhibition at 5 µM (LN-229): 60% | inhibition at 5 µM (U-87 MG [26]): 60% | inhibition at 5 µM (U-251 [27]): 60%

CCN(CC)CCCC(C)Nc1c2ccc(Cl)cc2nc2ccc(OC)cc12 (stereo not given) [QUINACRINE]
IC50 (U-251 [5]): 5 µM
